From US10358446B2, “Bruton's tyrosine kinase inhibitors” (Zibo Biopolar Changsheng Pharmaceutical Co. Ltd., priority 2015, dated 2019)
pIC50: −log10 of the molar value.

Target: BTK (Homo sapiens (Human), UniProt Q06187)
Experiment: Btk kinase assay (HTRF)
Type: biochemical
Details: [ATP]=80 μM, BTK=3.4 nM; read-out: BTK Inhibition
Description: Btk kinase activity was determined using a homogenous time resolved fluorescence (HTRF) methodology. Measurements were performed in a reaction volume of 15 μL using 384-well assay plates. Kinase enzyme, inhibitor, ATP and 1 μM peptide substrate were incubated in a reaction buffer compose of Hepes 50 mM (pH7.0), NaN3 0.02%, BSA 0.01%, Orthocanadate 0.1 mM. After one hour, the kinase reaction was quenched by the addition of […] antibody and XL-665 in 1× Detection buffer containing 60 mM EDTA (Cisbio), and the mixture was allowed to incubate for one hour. The HTRF signal was measured on a multimode plate reader (EnVision® Multilabel Reader, Perkin Elmer) with an excitation wavelength (λEx) of 330 nm and detection wavelengths (λEm) of 615 and 665 nrm. Activity was determined by the ratio of the fluorescence at 665 nm to that at 615 nm. For each compound, enzyme activity as measured at various concentrations of compound, Negative control reactions were performed in the absence of inhibitor in two replicates and eight no enzyme controls were used to determine baseline fluorescence levels. IC50s were obtained according to the equation: […] For BTK assay, [ATP]=80 μM, BTK=3.4 nM.

Chain of BTK (Q06187 whole entry, species assumed): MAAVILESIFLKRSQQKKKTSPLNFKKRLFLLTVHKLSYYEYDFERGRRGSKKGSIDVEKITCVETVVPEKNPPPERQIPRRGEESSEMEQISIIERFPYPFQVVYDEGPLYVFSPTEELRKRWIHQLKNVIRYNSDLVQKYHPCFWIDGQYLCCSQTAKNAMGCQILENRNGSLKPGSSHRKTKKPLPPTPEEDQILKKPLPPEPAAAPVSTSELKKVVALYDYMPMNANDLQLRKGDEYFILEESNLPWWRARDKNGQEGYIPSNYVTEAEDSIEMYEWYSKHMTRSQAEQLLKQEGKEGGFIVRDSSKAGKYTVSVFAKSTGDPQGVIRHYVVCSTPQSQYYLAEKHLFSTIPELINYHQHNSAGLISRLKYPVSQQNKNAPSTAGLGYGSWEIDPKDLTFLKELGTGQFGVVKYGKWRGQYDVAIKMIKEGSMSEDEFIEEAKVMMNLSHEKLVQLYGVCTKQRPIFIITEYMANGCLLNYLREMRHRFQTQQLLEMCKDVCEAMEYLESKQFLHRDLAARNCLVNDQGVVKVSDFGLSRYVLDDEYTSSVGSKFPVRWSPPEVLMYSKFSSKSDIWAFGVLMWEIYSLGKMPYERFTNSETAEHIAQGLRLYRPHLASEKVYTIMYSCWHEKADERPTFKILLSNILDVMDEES

SMILES	pIC50
C=CC(=O)Nc1cccc(-n2c(=O)n(-c3ccc(OCc4ccc(Cl)cc4)cc3)c3cnccc32)c1 [Example 221, N-(3-(3-(4-((4-chlorobenzyl)oxy)phenyl)-2-oxo-2,3-dihydro-1H-imidazo[4,5-c]pyridin-1-yl)phenyl)acrylamide]	7.00 to 8.00
C=CC(=O)N1CC[C@@H](n2c(=O)n(-c3ccc(Oc4cccc(C(C)C)c4)cc3)c3cnccc32)C1 [Example 153, (R)-1-(1-acryloylpyrrolidin-3-yl)-3-(4-(3-isopropylphenoxy)phenyl)-1H-imidazo[4,5-c]pyridin-2(3H)-one]	7.00 to 8.00
C=CC(=O)N1CC[C@@H](n2c(=O)n(-c3ccc(OCc4ccccc4)c(Cl)c3)c3cnccc32)C1 [Example 197, (R)-1-(1-acryloylpyrrolidin-3-yl)-3-(4-(benzyloxy)-3-chlorophenyl)-1H-imidazo[4,5-c]pyridin-2(3H)-one]	6.00 to 7.00
C=CC(=O)N1CC[C@@H](n2c(=O)n(-c3ccc(Oc4ccc(F)cc4)cc3)c3cnccc32)C1 [Example 81, (R)-1-(1-acryloylpyrrolidin-3-yl)-3-(4-(4-fluorophenoxy)phenyl)-1H-imidazo[4,5-c]pyridin-2(3H)-one]	6.00 to 7.00
C=CC(=O)Nc1cccc(-n2c(=O)n(-c3ccc(OCc4cccc(Cl)c4F)c(F)c3)c3cnccc32)c1 [Example 238, N-(3-(3-(4-((3-chloro-2-fluorobenzyl)oxy)-3-fluorophenyl)-2-oxo-2,3-dihydro-1H-imidazo[4,5-c]pyridin-1-yl)phenyl)acrylamide]	6.00 to 7.00
C=CC(=O)N1CC[C@@H](n2c(=O)n(-c3ccc(OCc4ccccc4)cc3)c3cnccc32)C1 [Example 246]	6.00 to 7.00
C=CC(=O)N1CCC(n2c(=O)n(-c3ccc(Oc4cccc(C(F)(F)F)c4)c(Cl)c3)c3cnccc32)C1 (stereo not drawn) [Example 6, 1-(1-acryloylpyrrolidin-3-yl)-3-(3-chloro-4-(3-(trifluoromethyl)phenoxy)phenyl)-1H-imidazo[4,5-c]pyridin-2(3H)-one]	7.00 to 8.00
C=CC(=O)Nc1cccc(-n2c(=O)n(-c3ccc(Oc4cccc(C)c4)c(C)c3)c3cnccc32)c1 [Example 47, N-(3-(3-(3-methyl-4-(m-tolyloxy)phenyl)-2-oxo-2,3-dihydro-1H-imidazo[4,5-c]pyridin-1-yl)phenyl) acrylamide]	5.00 to 6.00
C=CC(=O)Nc1cccc(-n2c(=O)n(-c3ccc(OCc4cc(F)c(F)cc4F)cc3)c3cnccc32)c1 [Example 195, N-(3-(2-oxo-3-(4-((2,4,5-trifluorobenzyl)oxy)phenyl)-2,3-dihydro-1H-imidazo[4,5-c]pyridin-1-yl)phenyl)acrylamide]	7.00 to 8.00
C=CC(=O)Nc1cccc(-n2c(=O)n(-c3ccc(NC(=O)c4cccc(OC)c4)cc3)c3cnccc32)c1 [Example 266, N-(4-(1-(3-acrylamidophenyl)-2-oxo-1H-imidazo[4,5-c]pyridin-3(2H)-yl)phenyl)-3-methoxybenzamide]	6.00 to 7.00
O=C(/C=C/N1CCOCC1)N1CC[C@@H](n2c(=O)n(-c3ccc(Oc4ccccc4)c(Cl)c3)c3cnccc32)C1 [Example 18, (R,E)-3-(3-chloro-4-phenoxyphenyl)-1-(1-(3-morpholinoacryloyl)pyrolidin-3-yl)-1H-imidazo[4,5-c]-pyridin-2(3H)-one]	6.00 to 7.00
C=CC(=O)N1CC[C@@H](n2c(=O)n(-c3ccc(OCc4ccccn4)cc3)c3cnccc32)C1 [Example 213, (R)-1-(1-acryloylpyrrolidin-3-yl)-3-(4-(pyridin-2-ylmethoxy)phenyl)-1H-imidazo[4,5-c]pyridin-2(3H)-one]	5.00 to 6.00
C=CC(=O)N1CC[C@@H](n2c(=O)n(-c3ccc(OCc4ccccc4C(F)(F)F)cc3)c3cnccc32)C1 [Example 210, (R)-1-(1-acryloylpyrrolidin-3-yl)-3-(4-((2-(trifluoromethyl)benzyl)oxy)phenyl)-1H-imidazo[4,5-c]pyridine-2(3H)-one]	7.00 to 8.00
C=CC(=O)Nc1cccc(-n2c(=O)n(-c3ccc(Oc4cccc(OC(C)C)c4)cc3)c3cnccc32)c1 [Example 85, N-(3-(3-(4-(3-isopropoxyphenoxy)phenyl)-2-oxo-2,3-dihydro-1H-imidazo[4,5-c]pyridin-1-yl)phenyl)acrylamide]	7.00 to 8.00
C=CC(=O)N1CC[C@@H](n2c(=O)n(-c3ccc(Oc4cccc(C)c4)c(Cl)c3)c3cnccc32)C1 [Example 19, (R)-1-(1-acryloylpyrrolidin-3-yl)-3-(3-chloro-4-(m-tolyloxy)phenyl)-1H-imidazo[4,5-c]pyridin-2(3H)-one]	7.00 to 8.00
C=CC(=O)Nc1cccc(-n2c(=O)n(-c3ccc(Oc4cccc(C)c4)c(Cl)c3)c3cnccc32)c1 [Example 144, N-(3-(3-(3-chloro-4-(m-tolyloxy)phenyl)-2-oxo-2,3-dihydro-1H-imidazo[4,5-c]pyridin-1-yl)phenyl)acrylamide]	7.00 to 8.00
C=CC(=O)Nc1cccc(-n2c(=O)n(-c3ccc(Oc4ccnc(C(=O)NC)c4)cc3)c3cnccc32)c1 [Example 115, 4-(4-(1-(3-acrylamidophenyl)-2-oxo-1H-imidazo[4,5-c]pyridin-3(2H)-yl)phenoxy)-N-methylpicolinamide]	6.00 to 7.00
CC#CC(=O)N1CC[C@@H](n2c(=O)n(-c3ccc(Oc4ccccc4)cc3)c3cnccc32)C1 [Example 34, (R)-1-(1-(but-2-ynoyl)pyrrolidin-3-yl)-3-(4-phenoxyphenyl)-1H-imidazo [4,5-c]pyridin-2(3H)-one]	≤ 5.00
C=CC(=O)Nc1cccc(-n2c(=O)n(-c3ccc(Oc4cccc(OC(C)C)c4)c(C)c3)c3cnccc32)c1 [Example 46, N-(3-(3-(4-(3-isopropoxyphenoxy)-3-methylphenyl)-2-oxo-2,3-dihydro-1H-imidazo[4,5-c]pyridin-1-yl)phenyl)acrylamide]	5.00 to 6.00
C=CC(=O)N1CCC(n2c(=O)n(-c3ccc(Oc4ccccc4)cc3)c3cnccc32)CC1 [Example 30, 1-(1-acryloylpiperidin-4-yl)-3-(4-phenoxyphenyl)-1H-imidazo[4,5-c]pyridin-2(3H)-one]	≤ 5.00
C=CC(=O)Nc1cccc(-n2c(=O)n(-c3ccc(Oc4cccc(C(C)C)c4)cc3)c3cnccc32)c1 [Example 114, N-(3-(3-(4-(3-isopropylphenoxy)phenyl)-2-oxo-2,3-dihydro-1H-imidazo[4,5-c]pyridin-1-yl)phenyl)acrylamide]	7.00 to 8.00
C=CC(=O)N1CC[C@@H](n2c(=O)n(-c3ccc(OCc4ccc(Cl)cc4Cl)c(Cl)c3)c3cnccc32)C1 [Example 208, (R)-1-(1-acryloylpyrrolidin-3-yl)-3-(3-chloro-4-((2,4-dichlorobenzyl)oxy)phenyl)-1H-imidazo[4,5-c]pyridin-2(3H)-one]	6.00 to 7.00
C=CC(=O)Nc1cccc(-n2c(=O)n(-c3ccc(Oc4cccc(Cl)c4F)cc3)c3cnccc32)c1 [Example 54, N-(3-(3-(4-(3-chloro-2-fluorophenoxy)phenyl)-2-oxo-2,3-dihydro-1H-imidazo[4,5-c]pyridin-1-yl)phenyl)acrylamide]	7.00 to 8.00
C=CC(=O)N1CC[C@@H](n2c(=O)n(-c3ccc(Oc4cccc(OC)c4)c(Cl)c3)c3cnccc32)C1 [Example 45, (R)-1-(1-acryloylpyrrolidin-3-yl)-3-(3-chloro-4-(3-methoxyphenoxy)phenyl)-1H-imidazo[4,5-c]pyridin-2(3H)-one]	7.00 to 8.00
